Data from patent US20020013306A1, “TERPYRIDINE-PLATINUM(II) COMPLEXES” (priority 1996, published 2002).

Assays:
Type in all cases: cell-based
[1] = system: CH1dox^R human ovarian carcinoma cell line (doxorubicin resistant); assay: 96 h growth inhibition, sulforhodamine B assay, CH1doxR; settings: for IC50: 96 h exposure, growth inhibition; for RF resistance factor: IC50 resistant line/IC50 parent line: CH1dox^R / CH1
[2] = system: CH1cis^R human ovarian carcinoma cell line (cisplatin resistant); assay: 96 h growth inhibition, sulforhodamine B assay, CH1cisR; settings: for IC50: 96 h exposure, growth inhibition, v = variable (mean); for RF resistance factor: IC50 resistant line/IC50 parent line: CH1cis^R / CH1
[3] = system: A2780cis^R human ovarian carcinoma cell line (cisplatin resistant); assay: 96 h growth inhibition, sulforhodamine B assay, A2780cisR; settings: for IC50: 96 h exposure, growth inhibition, v = variable (mean); for RF resistance factor: IC50 resistant line/IC50 parent line: A2780cis^R / A2780
[4] = system: A2780 human ovarian carcinoma cell line; assay: 96 h growth inhibition, sulforhodamine B assay, A2780; settings: 96 h exposure, v = variable (mean)
[5] = system: T. brucei (S427) bloodstream trypomastigotes; assay: Trypanosoma brucei bloodstream trypomastigote culture
[6] = system: CH1 human ovarian carcinoma cell line; assay: 96 h growth inhibition, sulforhodamine B assay, CH1; settings: 96 h exposure, v = variable (mean)
T. cruzi (MHOM/BR/00/Y) = assay: Trypanosoma cruzi in mouse peritoneal macrophages
Procedure: Trypanosoma cruzi: […] Drug activity was determined from the % of infected macrophages in treated cultures. Nifurtimox was used as the positive control.

[7] = system: SKOV3 human ovarian carcinoma cell line; assay: 96 h growth inhibition, sulforhodamine B assay, SKOV3; settings: 96 h exposure, v = variable (mean)

SMILES | IC50 [1] [µM] | RF resistance factor: IC50 resistant line/IC50 parent line [1] | IC50 [2] [µM] | RF resistance factor: IC50 resistant line/IC50 parent line [2] | IC50 [3] [µM] | RF resistance factor: IC50 resistant line/IC50 parent line [3] | IC50 [4] [µM] | % Inhibition, Trypanosoma brucei ([5]; 1 μM) [%] | % Inhibition, Trypanosoma brucei ([5]; 3 μM) [%] | % Inhibition, Trypanosoma brucei ([5]; 10 μM) [%] | % Inhibition, Trypanosoma brucei ([5]; 30 μM) [%] | IC50 [6] [µM] | % Inhibition, Trypanosoma cruzi (T. cruzi (MHOM/BR/00/Y); 1 μM) [%] | % Inhibition, Trypanosoma cruzi (T. cruzi (MHOM/BR/00/Y); 3 μM) [%] | % Inhibition, Trypanosoma cruzi (T. cruzi (MHOM/BR/00/Y); 10 μM) [%] | % Inhibition, Trypanosoma cruzi (T. cruzi (MHOM/BR/00/Y); 30 μM) [%] | IC50 [7] [µM] | % Inhibition, Trypanosoma brucei ([5]; 0.1 μM) [%] | % Inhibition, Trypanosoma brucei ([5]; 0.3 μM) [%]
CC#[N+][Pt-2]12[n+]3ccccc3-c3cccc([n+]31)-c1cccc[n+]12.F[B-](F)(F)F.F[B-](F)(F)F [Compound A8] | 13 | 0.7 | 18.5 | 1 | 100 | 2 | 50 | 100 | 100 | 100 | 100 | 18 | 0 | 0 | 4.0 | 38.0 | > 100 | – | –
F[B-](F)(F)F.F[B-](F)(F)F.[NH3+][Pt-2]12[n+]3ccccc3-c3cccc([n+]31)-c1cccc[n+]12 [Compound A12] | 3.75 | 0.7 | 4.5 | 0.9 | 23.5 | 2 | 11.5 | 100 | 100 | 100 | 100 | 5.2 | 72.3 | 100 | 100 | 100 | 15 | 83.8 | 98.5
F[B-](F)(F)F.F[B-](F)(F)F.c1cc[n+]2c(c1)-c1cccc3[n+]1[Pt-2]2([n+]1ccsc1)[n+]1ccccc1-3 [Compound A6] | 6.3 | 0.4 | 17 | 1 | > 100 | 1 | 18.6 | 100 | 100 | 100 | 100 | 17 | 0 | 0 | 5.0 | – | > 100 | 75.4 | 100
CN(NC(=O)CCCCC(=O)NN(C)c1cc(-c2ccccn2)nc(-c2ccccn2)c1)c1cc(-c2ccccn2)nc(-c2ccccn2)c1.Cc1ccncc1.Cc1ccncc1.F[B-](F)(F)F.F[B-](F)(F)F.F[B-](F)(F)F.F[B-](F)(F)F.[Pt+2].[Pt+2] [W, Adipoyl-Linked-Bis[4-Picoline(4′-(1 -Methylhydrazino)-2,2′:6′,2″-Terpyridine) Platinum(II)] Tetrafluoroborate] | 58 | 1.2 | 46 | 0.9 | 10.5 | 0.6 | 17 | 0 | 0 | 59.8 | 100 | 48 | 0 | 0 | 0 | 8.3 | > 100 | 0 | 0
CN(N)c1cc(-c2ccccn2)nc(-c2ccccn2)c1.Cc1ccncc1.F[B-](F)(F)F.F[B-](F)(F)F.[Pt+2] [S, (4-Picoline)(4′-(1 -Methylhydrazino)-2,2′:6′,2″-Terpyridine) Platinum (II) Tetra-fluoroborate] | 14.5 | 0.2 | > 100 | – | 62 | 3.4 | 18 | 44.4 | 98.3 | 100 | 100 | 65 | 60.9 | 53.3 | 53.3 | 334 | > 100 | 0 | 22.5
F[B-](F)(F)F.F[B-](F)(F)F.Fc1ccc[n+]([Pt-2]23[n+]4ccccc4-c4cccc([n+]42)-c2cccc[n+]23)c1 [Compound A5] | 6.1 | 0.3 | 17 | 1 | > 100 | – | 19.5 | 100 | 100 | 100 | 100 | 17 | 2.0 | 6.5 | 43.8 | – | > 100 | – | –
CN(C)c1cc[n+]([Pt-2]23[n+]4ccccc4-c4cccc([n+]42)-c2cccc[n+]23)cc1.F[B-](F)(F)F.F[B-](F)(F)F [Compound A3] | 3.95 | 0.6 | 7.5 | 1.2 | 21.5 | 1.3 | 16 | 100 | 100 | 100 | 100 | 6.1 | 30.3 | 85.8 | 100 | 99.8 | 13 | 44.6 | 100
F[B-](F)(F)F.F[B-](F)(F)F.Fc1cccc[n+]1[Pt-2]12[n+]3ccccc3-c3cccc([n+]31)-c1cccc[n+]12 [Compound A4] | 5.4 | 0.3 | 14 | 0.9 | > 100 | – | 21.5 | 100 | 100 | 100 | 100 | 15.5 | 3.0 | 6.0 | 93 | – | > 100 | – | –
